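All cell lines were grown in 96-well plates and treated with compound for 48 hours. Abbreviation: GI50, concentration required for 50% inhibition of growth.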 Active and inactive are the calls of the source. Cut-off read from the data, not from the text of the source: active = GI50 up to about 1.1 µM and inactive = higher.
Key:
Assay in all cases: DTP human tumour cell line panel, 48 h
HCT-116 = tested on: HCT-116
OVCAR-8 = tested on: OVCAR-8
NCI-H23 = tested on: NCI-H23
SK-MEL-5 = tested on: SK-MEL-5
MOLT-4 = tested on: MOLT-4
A498 = tested on: A498
U-251 = tested on: U-251
786-0 = tested on: 786-0
RPMI-8226 = tested on: RPMI-8226
SR = tested on: SR
SN12C = tested on: SN12C
SK-OV-3 = tested on: SK-OV-3
NCI-H460 = tested on: NCI-H460
COLO 205 = tested on: COLO 205
SF-268 = tested on: SF-268
M14 = tested on: M14
LOX IMVI = tested on: LOX IMVI
UACC-257 = tested on: UACC-257

Measured: GI50

OCCNC1=Nc2ccc(Cl)cc2C(=S)N2CSC[C@@H]12
inactive: HCT-116 > 100 µM | OVCAR-8 > 100 µM | NCI-H23 > 100 µM | SK-MEL-5 > 100 µM | MOLT-4 > 100 µM | A498 > 100 µM | U-251 > 100 µM | 786-0 > 100 µM | RPMI-8226 > 100 µM | SR > 100 µM | SN12C > 100 µM | SK-OV-3 > 100 µM | NCI-H460 > 100 µM | COLO 205 > 100 µM | SF-268 > 100 µM | M14 > 100 µM

O=C(Nc1c(Cl)cc([N+](=O)[O-])cc1Cl)C(=O)C1C(=O)NC(=S)NC1=O
inactive: HCT-116 > 100 µM | OVCAR-8 > 100 µM | NCI-H23 > 100 µM | SK-MEL-5 > 100 µM | LOX IMVI > 100 µM | MOLT-4 > 10 µM | A498 > 100 µM | U-251 > 100 µM | 786-0 > 100 µM | RPMI-8226 > 100 µM | UACC-257 > 100 µM | SR > 10 µM | SN12C > 100 µM | SK-OV-3 > 100 µM | NCI-H460 > 100 µM | SF-268 > 100 µM | M14 > 100 µM

CCOC(=O)C(Br)(C(N)=O)C1(O)OC(c2ccccc2)=C(Br)C1=O (stereo unspecified)
inactive: HCT-116 18.2 µM | OVCAR-8 17.5 µM | NCI-H23 23.7 µM | SK-MEL-5 22.6 µM | LOX IMVI 21.3 µM | A498 > 100 µM | U-251 17.6 µM | 786-0 23.3 µM | RPMI-8226 12.4 µM | UACC-257 > 100 µM | SR 18.2 µM | SN12C 17.2 µM | SK-OV-3 66.1 µM | NCI-H460 > 100 µM | COLO 205 17 µM | SF-268 22.2 µM | M14 28.4 µM

O=C1CCC2(CC1CC(Sc1ccccc1)Sc1ccccc1)OCCO2 (stereo unspecified)
inactive: OVCAR-8 42.5 µM | NCI-H23 42.7 µM | SK-MEL-5 17.5 µM | LOX IMVI 37.4 µM | MOLT-4 20.7 µM | A498 74.3 µM | U-251 41.9 µM | 786-0 45.7 µM | RPMI-8226 30 µM | UACC-257 36.8 µM | SR 26.4 µM | SK-OV-3 > 100 µM | NCI-H460 31.8 µM | COLO 205 25.2 µM | SF-268 31.2 µM | M14 43.9 µM

CC(=O)OC1O[C@@H](C(C)(C)O)CC[C@@H]1[C@H]1CC[C@@]2(C)C3=C(CC[C@]12C)[C@@]1(C)C[C@@H](OC(=O)CC(C)(O)CC(=O)O)[C@H](OC(C)=O)C(C)(C)C1CC3 (stereo partly specified)
inactive: HCT-116 > 10 µM | OVCAR-8 17.1 µM | NCI-H23 21.2 µM | SK-MEL-5 19.2 µM | LOX IMVI 17.7 µM | MOLT-4 19.4 µM | A498 19.2 µM | U-251 16 µM | 786-0 19.3 µM | RPMI-8226 23.3 µM | UACC-257 17.5 µM | SR 23.4 µM | SN12C 19.2 µM | SK-OV-3 18.2 µM | NCI-H460 18 µM | M14 19.5 µM

Cc1ccc([N+](=O)[O-])cc1S(=O)(=O)Nc1ccc(C2=NN(C(=O)c3ccccc3)C(c3cccs3)C2)cc1 (stereo unspecified)
inactive: HCT-116 22.3 µM | OVCAR-8 22.4 µM | NCI-H23 15.6 µM | SK-MEL-5 13.6 µM | LOX IMVI 30.8 µM | MOLT-4 20.4 µM | A498 10.5 µM | U-251 20.8 µM | 786-0 17.9 µM | RPMI-8226 31.6 µM | UACC-257 21.5 µM | SR 28.8 µM | SN12C 22.4 µM | SK-OV-3 20.6 µM | COLO 205 16.9 µM | SF-268 20 µM | M14 24.1 µM

CC(=O)c1c2c(cc3c1CC1(C3)Cc3cc4c(c(C(C)=O)c3C1)CCCC4)CCCC2
inactive: HCT-116 55.8 µM | OVCAR-8 > 100 µM | NCI-H23 > 100 µM | SK-MEL-5 17.4 µM | LOX IMVI > 100 µM | MOLT-4 18.4 µM | A498 > 100 µM | U-251 > 100 µM | 786-0 45.6 µM | RPMI-8226 21.3 µM | UACC-257 25.1 µM | SR 16.3 µM | SN12C > 100 µM | SK-OV-3 > 100 µM | COLO 205 > 100 µM | M14 > 100 µM

CC(=O)Oc1ccc(C)c2c1[C@H]1CC[C@]3(C)[C@@H](OC(C)=O)CC[C@H]3[C@@H]1CC2
inactive: HCT-116 17 µM | OVCAR-8 22.4 µM | NCI-H23 16.8 µM | SK-MEL-5 19.5 µM | LOX IMVI 17 µM | MOLT-4 16 µM | A498 17.6 µM | U-251 15.2 µM | 786-0 21.3 µM | RPMI-8226 19.4 µM | UACC-257 17.9 µM | SR 34.1 µM | SN12C 18.8 µM | NCI-H460 20 µM | SF-268 26.7 µM | M14 17.5 µM

CCOC(=O)c1c(-c2ccc(O)c(OC)c2)c(C#N)c(=S)n(C2OC(CO)C(O)C(O)C2O)c1-c1ccccc1 (stereo unspecified)
inactive: HCT-116 > 100 µM | OVCAR-8 > 100 µM | NCI-H23 > 100 µM | SK-MEL-5 > 100 µM | LOX IMVI > 100 µM | MOLT-4 54.3 µM | A498 > 100 µM | U-251 > 100 µM | 786-0 > 100 µM | RPMI-8226 72.3 µM | UACC-257 > 100 µM | SR > 100 µM | SN12C > 100 µM | NCI-H460 > 100 µM | COLO 205 > 100 µM | SF-268 > 100 µM | M14 > 100 µM

O=C(O)c1ccccc1/C=C1/Nc2ccccc2C1=O
inactive: HCT-116 81.5 µM | OVCAR-8 > 100 µM | NCI-H23 > 100 µM | LOX IMVI 75.9 µM | MOLT-4 91.4 µM | A498 > 100 µM | U-251 > 100 µM | 786-0 > 100 µM | RPMI-8226 > 100 µM | UACC-257 > 100 µM | SR 66.5 µM | SN12C > 100 µM | SK-OV-3 > 100 µM | NCI-H460 32.9 µM | COLO 205 > 100 µM | SF-268 93.1 µM | M14 > 100 µM

CCOC(=O)Cn1c2ccc(Br)cc2c2nc3ccccc3nc21
inactive: HCT-116 > 100 µM | OVCAR-8 > 100 µM | NCI-H23 > 100 µM | SK-MEL-5 > 100 µM | LOX IMVI > 100 µM | MOLT-4 > 100 µM | A498 > 100 µM | U-251 > 100 µM | 786-0 > 100 µM | RPMI-8226 > 100 µM | UACC-257 > 100 µM | SR 88.7 µM | SN12C > 100 µM | COLO 205 > 100 µM | SF-268 > 100 µM | M14 > 100 µM

Source: ChEMBL document CHEMBL1201862, “PubChem BioAssay data set” (2004)
